Reference: PubChem BioAssay (NCI)
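96-well plates; 48 h exposure; 5 concentrations. Endpoints by linear interpolation between flanking doses. Not reached: highest tested concentration assigned. GI50: concentration for 50% inhibition of growth. TGI marks complete inhibition of growth.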

What was measured:
Test in all cases: inhibition of tumour cell growth, NCI panel, 48 h
SK-MEL-5 melanoma = system: SK-MEL-5 melanoma
SF-539 CNS = system: SF-539 CNS
UO-31 renal = system: UO-31 renal
UACC-62 melanoma = system: UACC-62 melanoma
SNB-19 CNS = system: SNB-19 CNS
IGROV1 ovarian = system: IGROV1 ovarian
SK-OV-3 ovarian = system: SK-OV-3 ovarian
HOP-92 NSCLC = system: HOP-92 NSCLC

| Compound | TGI (SK-MEL-5 melanoma) [µM] | TGI (SF-539 CNS) [µM] | TGI (UO-31 renal) [µM] | TGI (UACC-62 melanoma) [µM] | TGI (SNB-19 CNS) [µM] | TGI (IGROV1 ovarian) [µM] | TGI (SK-OV-3 ovarian) [µM] | TGI (HOP-92 NSCLC) [µM] | GI50 (SK-MEL-5 melanoma) [µM] | GI50 (SF-539 CNS) [µM] | GI50 (UO-31 renal) [µM] | GI50 (UACC-62 melanoma) [µM] | GI50 (SNB-19 CNS) [µM] | GI50 (IGROV1 ovarian) [µM] | GI50 (SK-OV-3 ovarian) [µM] | GI50 (HOP-92 NSCLC) [µM] |
| --- | --- | --- | --- | --- | --- | --- | --- | --- | --- | --- | --- | --- | --- | --- | --- | --- |
| COC(=O)C(=O)C(C(=O)C(=O)Nc1nc2ccc(C)cc2s1)c1nc2ccc([N+](=O)[O-])cc2[nH]c1=O (centres undefined) | > 100 | > 100 | > 100 | > 100 | > 100 | > 100 | > 100 | > 100 | – | – | – | – | – | – | – | – |
| Cc1ccc(C(SCC(N)C(=O)O)(c2ccc(C)cc2)c2ccc(C)cc2)cc1 (centres undefined) | 14.7 | 7.5 | 40.4 | 13.8 | 30.2 | 29.5 | 15.3 | 17.5 | 0.907 | 1.22 | 9.79 | 1.03 | 4.97 | 10.3 | 1 | 2.87 |
| O=[N+]([O-])c1ccccc1N/N=C\c1c[nH]c2ccccc12 | > 100 | 31.2 | > 65.9 | > 100 | > 100 | 3.92 | 98 | 49.2 | 71.4 | 12.4 | 0.658 | 17.1 | 24.9 | 0.0379 | 22.4 | 4.45 |
| CN(C)c1ccc(N=C2C=CC(=[N+](C)C)C=C2)cc1 | 11.8 | 45.8 | 47.6 | 34.6 | > 100 | 37.8 | 78.6 | 74.4 | 3.26 | 11.7 | 11.3 | 5.25 | 6.45 | 5.35 | 15.5 | 5.17 |
| C=CC(C1=CC(=O)C(OC)=CC1=O)c1ccccc1 (centres undefined) | 30 | 29.9 | 29.6 | 29 | 29.4 | 30.3 | 42.2 | 11.8 | – | – | – | – | – | – | – | – |
| COc1ccc2cc(-c3cc4c(oc3=O)-c3ccccc3OC4O)c(=O)oc2c1 (centres undefined) | 26.9 | 29.2 | 33.4 | 30.4 | 30.5 | 34 | 32.3 | 24.7 | 13.2 | 15.2 | 17.5 | 16.2 | 16.2 | 16.9 | 17.1 | 10.2 |
| COc1cc(-c2nc3ccccc3s2)ccc1NC(=O)COc1ccc(Cl)cc1 | > 100 | > 100 | > 100 | 13 | 19.4 | 21.2 | > 100 | 4.99 | 8.68 | 61.6 | 1.49 | 2.74 | 3.71 | 1.14 | 36.5 | 1.66 |
| Cn1cc(C2=C(c3cn(C)c4c([N+](=O)[O-])cccc34)C(=O)NC2=O)c2ccccc21 | > 25 | > 25 | > 25 | > 25 | > 25 | > 25 | > 25 | > 25 | > 25 | > 25 | > 25 | > 25 | > 25 | > 25 | > 25 | > 25 |
| N#Cc1ccccc1NC(=O)C(=O)c1c(O)c2ccccc2oc1=O | > 100 | > 100 | > 100 | > 100 | > 100 | > 100 | > 100 | > 100 | – | – | – | – | – | – | – | – |
| COc1ccc(C(=O)COC(=O)[C@H](C[Se][Se]C[C@H](NC(=O)c2ccc(Br)cc2F)C(=O)OCC(=O)c2ccc(OC)cc2)NC(=O)c2ccc(Br)cc2F)cc1 | 2.76 | 0.976 | 1.68 | 2.86 | 4.9 | 2.62 | 1.64 | 5.87 | 0.596 | 0.321 | 0.579 | 1.06 | 0.427 | 0.82 | 0.441 | 2.04 |
| COc1ccc2c(c1)[n+](=O)c(C(=O)c1ccco1)c(C(F)(F)F)n2[O-] | 2.68 | 15.6 | 2.51 | 4.91 | 45.5 | 20.4 | 25.9 | 19.5 | 1.31 | 3.41 | 0.387 | 1.75 | 4.25 | 2.57 | 3.15 | 1.83 |
| COc1ccc(C(=O)c2cc(OC)c(OC)c(OC)c2)cc1/C=C/C(=O)c1ccc(OC)c(OC)c1 | – | > 100 | – | – | > 100 | > 100 | > 100 | 58 | – | 3.08 | – | – | 2.7 | 3.08 | 5.76 | 1.69 |
| Clc1cccc(Cl)c1C1CSc2ccccc2N=C1c1ccccc1 (centres undefined) | 18.1 | 18.9 | 4.57 | 19.6 | 24.6 | 11.8 | 24.4 | – | 4.74 | 6.08 | 1.42 | 5.9 | 11.5 | 3.13 | 11.5 | – |
| Clc1ccc2c(c1)N(CCCN1CCCC1)c1ccccc1S2 | 3.32 | – | 20.7 | 25.2 | 28.1 | 23.3 | 19 | 16.2 | 1.83 | – | 6.61 | 10.2 | 9.63 | 7.84 | 6.22 | 3.94 |
| C=C(C)[C@@H]1CC[C@]2(C(=O)O)CC[C@]3(C)[C@H](CC[C@@H]4[C@@]5(C)C[C@@H](CC#Cc6ccc(C(F)(F)F)cc6)[C@H](O)C(C)(C)[C@@H]5CC[C@]43C)[C@@H]12 | > 100 | – | > 100 | – | > 100 | > 100 | – | 13.8 | 8.97 | – | 6.52 | – | 3.29 | 3.56 | – | 3.09 |
| Oc1ccc(O)c(-c2cn3ccsc3n2)c1 | 25.2 | – | 25.2 | 29.9 | 49.7 | 28.7 | 51.6 | – | 12.7 | – | 12.6 | 10.8 | 20.9 | 15.4 | 19.1 | – |
| N/N=C(\C(=O)Nc1ccc(Cl)cc1Cl)C(c1cnc2ccccc2n1)[N+](=O)[O-] (centres undefined) | > 100 | > 100 | > 100 | > 100 | – | > 100 | > 100 | > 100 | – | – | – | – | – | – | – | – |
| NC(N)=N/N=C/c1c(-c2cc(Cl)sc2Cl)nc2sccn12 | 1.56 | 1.72 | > 50 | 1.46 | – | 8.08 | – | – | 0.729 | 0.969 | 2 | 0.752 | – | 1.14 | – | – |
